Counter-ions that a name gives are not always drawn.
Columns and labels:
mice [1] = assay: P-phenylquinone-induced abdominal writhing test in mice; type: in vivo, Male Charles River mice (Swiss Strain); conditions: Mus musculus, sc, 20 min; s.c.; 20 min pretreatment; p-phenylquinone 2 mg/Kg i.p.; graded protection; read-out: ANALGESIA MOUSE WRITHING ED50
Method: A) P-phenylquinone-induced abdominal writhing test in mice
The methodology employed is based on that described by Sigmund et al, Proc. Soc. Exptl. Biol. 95, 729/1957, modified by Milne and Twomey, Agents and Actions, 10, 31/1980.
Male Charles River mice (Swiss Strain), 25-36 g body weight, were used. Animals were allowed food and water ad libitum and were randomized into groups of 10 prior to experimentation. Test compounds were dissolved in either distilled water or distilled water plus 0.1M AMS, and administered by the subcutaneous route in a final volume of 10 ml/Kg. Control animals received 10 ml/Kg of the appropriate vehicle alone. Following a pretreatment period of 20 min., mice were injected intraperitoneally with p-phenylquinone, 2 mg/Kg at 37° C. in a final volume of […]. […] During this period the number of abdominal writhing responses per animal were recorded where writhing consists of an intermittent contraction of the abdomen associated with hind leg extension.
The degree of antinociceptive protection afforded by the test compound was determined as the mean number of writhing responses observed in the treated group (T) expressed as a percentage of the mean number of writhing responses in the control group (C) according to the following formula:
[1-(T/C]×100%=% graded protection

mice [2] = assay: Tail-flick test in mice; type: in vivo, Male Charles River mice (Swiss Strain); conditions: Mus musculus, sc, 0.5 h; s.c.; 30 min pretreatment; quantal protection (reaction time doubled); read-out: ANALGESIA MOUSE TAIL-FLICK ED50
Method: B) Tail-flick test in mice
The methodology employed is based on that described by D'Amour and Smith, J. Pharmacol. Exp. Ther. 72, 74/1941.
Male Charles River mice (Swiss Strain), 22-34 g body weight were used. Animals were allowed food and water ad libitum and were randomized into groups of 10 prior to experimentation.
Test compounds were dissolved in either distilled water or distilled water plus 0.1M AMS and administered by the subcutaneous route in a final volume of 10 ml/Kg. Control animals received 10 ml/kg of the appropriate vehicle alone. Following a pretreatment period of 30 min., the mice were again placed under the heat source and the reaction tine re-determined.
Percentage quantal protection was determined as the number of mice in which the reaction time was doubled compared to pretreatment values, expressed as a percentage of the total number of mice in the group.

Compound | ED50 (mice [1]) [mg/kg] | ED50 (mice [2]) [mg/kg]
O=C(Cc1ccc(Cl)c(Cl)c1)N1CCCC[C@H]1CN1CC=CC1 [Example 1, (2S)-1-(3,4-dichlorophenyl)acetyl-2-(3-pyrrolin-1-yl)methyl piperidine hydrochloride] | 0.005 | 0.045
CC1(C)CCCN(C(=O)Cc2ccc(Cl)c(Cl)c2)C1CN1CC=CC1 (centres unmarked) [Example 2, 1-(3,4-dichlorophenyl)acetyl-2-(3-pyrrolin-1-yl)methyl-3,3-dimethyl piperidine hydrochloride] | 0.006 | 0.021
CC1(C)CCCN(C(=O)Cc2ccc(C(F)(F)F)cc2)C1CN1CC=CC1 (centres unmarked) [Example 3, 1-(4-trifluoromethylphenyl)acetyl-2-(3-pyrrolin-1-yl)methyl-3,3-dimethyl piperidine hydrochloride] | 0.006 | 0.015
CC1(C)CCCN(C(=O)Cc2ccc3c(c2)CCCC3)C1CN1CC=CC1 (centres unmarked) [Example 4, 1-(5,6,7,8-tetrahydronapht-2-yl)acetyl-2-(3-pyrrolin-1-yl) methyl-3,3-dimethyl piperidine hydrochloride] | 0.025 | 0.193
O=C(Cc1ccc(Cl)c(Cl)c1)N1CCc2ccccc2C1CN1CC=CC1 (centres unmarked) [Example 5, 1-(3-pyrrolin-1-yl)methyl-2-(3,4-dichlorophenyl)acetyl-1,2,3,4-tetrahydroisoquinoline hydrochloride] | 0.005 | 0.015
CC1(C)CN(C(=O)Cc2ccc(Cl)c(Cl)c2)C(CN2CC=CC2)c2ccccc21 (centres unmarked) [Example 6, 1-(3-pyrrolin-1-yl)methyl-2-(3,4-dichlorophenyl)acetyl-4,4-dimethyl-1,2,3,4-tetrahydroisoquinoline hydrochloride] | 0.047 | 0.275
O=C(Cc1ccc(Cl)c(Cl)c1)N1CCc2sccc2C1CN1CC=CC1 (centres unmarked) [Example 7, 4-(3-pyrrolin-1-yl)methyl-5-(3,4-dichlorophenyl)acetyl-4,5,6,7-tetrahydrothieno[3,2-c]pyridine hydrochloride hemihydrate] | 0.002 | 0.008
CC1(C)CN(C(=O)Cc2ccc(Cl)c(Cl)c2)C(CN2CC=CC2)c2ccsc21.Cl (centres unmarked) [Example 8, 4-(3-pyrrolin-1-yl)methyl-5-(3,4-dichlorophenyl)acetyl-7,7-dimethyl-4,5,6,7-tetrahydrothieno[3,2-c]pyridine hydrochloride] | 0.04 | 0.55
O=C1CCCc2cc(CC(=O)N3CCCC[C@H]3CN3CC=CC3)ccc21 [Example 9, (2S)-1-[1-oxo-3,4-dihydro-(2H)-napht-6-yl]acetyl-2-(3-pyrrolin-1-yl)methyl piperidine hydrochloride] | 0.023 | 0.316
CC1(C)CCCN(C(=O)Cc2ccc3c(c2)CCCC3=O)C1CN1CC=CC1 (centres unmarked) [Example 10, 1-[1-oxo-3,4-dihydro-(2H)-napht-6-yl]acetyl-2-(3-pyrrolin-1-yl)methyl-3,3-dimethyl piperidine hydrochloride] | 0.053 | 0.594
